Melting point data for one molecule are collected here from US7378535B2, “Production of furanones” (Unisearch Limited, A.C.N., priority 1998, dated 2008).

`CC(O)C1=CC(=C(Br)Br)OC1=O` (stereo not shown) [Example 7, 5-(Dibromomethylene)-3-(1-hydroxyethyl)-2(5H)-furanone]: the melting point was 100 °C.

By melting point is commonly meant the temperature of the solid-liquid transition.
